The source of these data is ChEMBL document CHEMBL1131604, “3,6-Diamino-10-methylacridan: uncharged precursor of acriflavine and its unique antimicrobial activity” (1998).

In assay [1] the test system is Human alphaherpesvirus 1. Description: Reduction of titer of Herpes simplex type-1 virus after 2 hr of incubation at 0.1% concentration. Format: functional.
For assay [2], the system named is Human alphaherpesvirus 1. Description: Reduction of titer of Herpes simplex type-1 virus after 2 hr of incubation at 0.01% concentration. Format: functional.

Take `CN1c2cc(N)ccc2Cc2ccc(N)cc21`: the TCID50 in the assay on Human alphaherpesvirus 1 [1] is reported as 3.7; in the assay on Human alphaherpesvirus 1 [2] it was 1.6.
